In brackets after ≈: the same amount, converted by molar mass.
Columns and labels:
[1] = system: Micrococcus flavus DSM 1719; test: agar diffusion bioassay, M. flavus as indicator; assay type: cell-based
Description: (§1) The strain NIZO 22186 was isolated from an industrially obtained fermented milk product and identified as a L. lactis strain which ferments sucrose and produces an antimicrobial activity in the culture medium. This antimicrobial activity was determined by the agar diffusion bioassay method [Tramer and Fowler, J. Sci. Food Agric. 15 (1964) 522-528] using Micrococcus flavus DSM 1719 cultured in nutrient broth(Difco) as indicator. The supernatant of a culture of strain […] cultured on lactose M17 medium (Difco) containing 0-5% sucrose or glucose contained an antimicrobial activity which, compared with strain NIZO R5 [Galesloot and Pette, Neth. […] The absorption was monitored at 220 nm. […] The purified peptide material from strain […] and purified commercial nisin A were then hydrolysed for 24 hours in 6N HCl at 110° C. under nitrogen, concentrated by freeze-drying and, after dissolving in 0.2M Na citrate buffer of pH 2.2, analyzed in a LKB 4151 amino acid analyser. […]
(§2) The antimicrobial activity of nisin Z was compared with that of nisin A. In this case, and for further comparisons of the two lantibiotics, use was made of preparations which had been purified with the aid of RP-HPLC [see above] and for which the precise amounts of lantibiotic had been determined by determining the absorption at 220 nm. […]

S. thermophilus Rs [2] = test: agar diffusion bioassay, S. thermophilus Rs as indicator; assay type: cell-based; conditions: S. thermophilus Rs in TGV medium, versus nisin A
Description: as §1, §2

M. flavus DSM1719 = test: minimum inhibitory concentration in exponentially growing cultures; assay type: cell-based; conditions: 37° C., nutrient broth
From the text: (§3) The antimicrobial activity of nisin Z was compared with that of nisin A. In this case, and for further comparisons of the two lantibiotics, use was made of preparations which had been purified with the aid of RP-HPLC [see above] and for which the precise amounts of lantibiotic had been determined by determining the absorption at 220 nm. […] The difference comprised both the shape and the gradient of the dose/response curve which relates the amount of lantibiotic added and the diameter of the inhibition zones. In this context it should be pointed out that nisin concentrations which are used in practice are always higher than 2.5 μg/ml [Delves-Broughton, Food Manufacture, March 1987 pp. 63-64]. so that measurements at lower concentrations are more of academic than of practical interest. […] Milk Dairy J., 15 (1961) 127-132]. […] A differentiation between these is made by determining the minimum inhibitory concentrations (MIC) of nisin Z and nisin A which effected growth inhibition in the case of the microorganisms used. In this determination use was also made of M. flavus DSM1719 and S. thermophilus Rs cultured at 37° C. in, respectively, nutrient broth (Difco) and whey permeate containing 0.2% yeast extract. […]

S. thermophilus Rs [3] = test: as above; assay type: cell-based; conditions: 37° C., whey permeate containing 0.2% yeast extract
From the text: as §3

[4] = system: Bacillus cereus (B.c.) strain 5227; test: MIC bioassay from OD600nm inhibition curves; assay type: cell-based; conditions: 6 hours at 30° C., shaken; less than 1% increase in OD600nm
Description: (§4) The antimicrobial activities referred to above were measured in a bioassay using Micrococcus flavus (M. f.) strain […], Bacillus cereus (B.c.) strain 5227 and Strepococcus thermophilus (S.t.) strain 3218 as indicator strains. Minimum inhibitory concentration (MIC) values were determined in the following way. Cultures of indicator organisms grown overnight were diluted to OD600nm values or 0.05 (M.f.) or 0.025 (S.t. and B.c.) and divided into 10 5 ml portions in tubes. These tubes were inoculated with various amounts of nisin A or (mutant) nisin Z and incubated aerobically under the following conditions (M.f.: 8 hours at 30° C., shaken; S.t.: 3 hours at 37° C., without shaking; B.c.: 6 hours at 30° C., shaken). The OD600nm was then measured. Without the addition of nisin, the final OD600nm values were approximately 1.2 for M.f., 0.5 for S.t. and 0.8 for B.c. All experiments were carried out in triplicate. The MIC values were determined from the inhibition curves by calculating the minimum concentration of (mutant) nisin at which less than a 1% increase in the OD600nm occurred. The solubilities of nisin A, nisin Z and the mutants N27K-nisin Z and H31K-nisin Z were determined in the range between pH 6.0 and pH 7.5. It can be seen from the results that in this range nisin Z is 1.5 to 2 times more soluble than nisin A and that the nisin Z mutants having an additional positive charge are 5 to 10 times more soluble than nisin A (Table 2).

[5] = system: Micrococcus flavus (M. f.) strain DSM 1790; test: MIC bioassay from OD600nm inhibition curves; assay type: cell-based; conditions: 8 hours at 30° C., shaken; less than 1% increase in OD600nm
Description: as §4

[6] = system: Strepococcus thermophilus (S.t.) strain 3218; test: MIC bioassay from OD600nm inhibition curves; assay type: cell-based; conditions: 3 hours at 37° C., without shaking; less than 1% increase in OD600nm
Description: as §4

[7] = system: Bacillus cereus strains VC1, P7 and C5; test: inhibition spectrum, agar diffusion method; assay type: cell-based
From the text: (§5) The antimicrobial activity of nisin Z was compared with that of nisin A. In this case, and for further comparisons of the two lantibiotics, use was made of preparations which had been purified with the aid of RP-HPLC [see above] and for which the precise amounts of lantibiotic had been determined by determining the absorption at 220 nm. […] The difference comprised both the shape and the gradient of the dose/response curve which relates the amount of lantibiotic added and the diameter of the inhibition zones. In this context it should be pointed out that nisin concentrations which are used in practice are always higher than 2.5 μg/ml [Delves-Broughton, Food Manufacture, March 1987 pp. 63-64]. so that measurements at lower concentrations are more of academic than of practical interest. […] Milk Dairy J., 15 (1961) 127-132]. […] A differentiation between these is made by determining the minimum inhibitory concentrations (MIC) of nisin Z and nisin A which effected growth inhibition in the case of the microorganisms used. In this determination use was also made of M. flavus DSM1719 and S. thermophilus Rs cultured at 37° C. in, respectively, nutrient broth (Difco) and whey permeate containing 0.2% yeast extract. Various amounts of nisin Z and nisin A were added to exponentially growing cultures of both organisms, after which the growth was compared with that of cultures to which no lantibiotic had been added.

[8] = system: Brevibacterium linens ATCC 9174; test: inhibition spectrum, agar diffusion method; assay type: cell-based
From the text: as §5

[9] = system: Clostridium tyrobutyricum BZ15; test: inhibition spectrum, agar diffusion method; assay type: cell-based
From the text: as §5

[10] = system: Lactococcus lactis subsp. cremoris BA3; test: inhibition spectrum, agar diffusion method; assay type: cell-based
From the text: as §5

[11] = system: Listeria monocytogenes strain 1, 4B, 13 and 669; test: inhibition spectrum, agar diffusion method; assay type: cell-based
From the text: as §5

chymotrypsin = test: sensitivity for proteolytic enzymes (RP-HPLC integrity and residual activity); assay type: physicochemical; conditions: nisin Z versus nisin A
Description: (§6) The sensitivity of the lantibiotics for some proteolytic enzymes has been described [Hurst, see above]. The sensitivity of nisin Z and nisin A for the proteolytic enzymes trypsin and chymotrypsin were determined by determining the integrity and the biological residual activity of the lantibiotics with the aid of, respectively, RP-HPLC and the agar diffusion assay [see above] after incubation with one of these enzymes.

trypsin = test: as above; assay type: physicochemical; conditions: nisin Z versus nisin A
Description: as §6

anti-nisin A antibodies = test: competitive ELISA with anti-nisin A antibodies; assay type: binding
From the text: Because the only difference between nisin Z and nisin A consists in the His27Asn substitution, the agreement between nisin Z and nisin A in respect of proteolytic sensitivity for these two enzymes is easily explainable. However, there are significant differences in physicochemical characteristics between the two abovementioned lantibiotics.

solubility determination = assay type: physicochemical; conditions: for Solubility: 0.15M NaCl, room temperature

## C=C(NC(=O)[C@@H](NC(=O)[C@H](Cc1c[nH]cn1)NC(=O)[C@@H](NC(=O)[C@H](CO)NC(=O)[C@@H]1CS[C@@H](C)[C@H]2NC(=O)[C@H](C)NC(=O)[C@H](NC(=O)[C@H](CCCCN)NC(=O)[C@H](CCSC)NC(=O)[C@H](CC(N)=O)NC(=O)[C@@H]3CS[C@@H](C)[C@@H](NC(=O)[C@H](CCCCN)NC(=O)[C@@H]4CS[C@@H](C)[C@@H](NC(=O)[C@@H]5CSC[C@@H](NC(=O)/C(=C/C)NC(=O)[C@@H](N)[C@@H](C)CC)C(=O)N[C@@H]([C@@H](C)CC)C(=O)NC(=C)C(=O)N[C@@H](CC(C)C)C(=O)N5)C(=O)N5CCC[C@H]5C(=O)NCC(=O)N4)C(=O)NCC(=O)N[C@@H](C)C(=O)N[C@@H](CC(C)C)C(=O)N[C@@H](CCSC)C(=O)NCC(=O)N3)[C@H](C)SC[C@H](NC2=O)C(=O)N[C@@H](CC(N)=O)C(=O)N1)[C@@H](C)CC)C(C)C)C(=O)N[C@@H](CCCCN)C(=O)O [nisin Z]
[1]; compared with nisin A
  diffusion rate in an agar medium: higher diffusion rate
[1]; concentrations above 0.03 μg/ml, versus same amount of nisin A
  zones of growth inhibition (diameter of halo): always found to be greater than those obtained with the same amount of nisin A
S. thermophilus Rs [2]
  zones of growth inhibition: Comparable results
M. flavus DSM1719
  minimum inhibitory concentration (MIC): 0.015 µg/mL (≈ 0.0045 µM)
S. thermophilus Rs [3]
  minimum inhibitory concentration (MIC): 0.03 µg/mL (≈ 0.00901 µM)
[4]
  Minimum Inhibitory Concentration, B. cereus: 130 µg/L
[5]
  Minimum Inhibitory Concentration, Micrococcus flavus: 11 µg/L
[6]
  Minimum Inhibitory Concentration, S. thermophilus: 6 µg/L
[7]
  antimicrobial activity (inhibition spectrum): comparably high antimicrobial activity
[8]
  antimicrobial activity (inhibition spectrum): comparably high antimicrobial activity
[9]
  antimicrobial activity (inhibition spectrum): comparably high antimicrobial activity
[10]
  antimicrobial activity (inhibition spectrum): comparably high antimicrobial activity
[11]
  antimicrobial activity (inhibition spectrum): comparably high antimicrobial activity
chymotrypsin
  sensitivity for chymotrypsin: comparable
trypsin
  sensitivity for trypsin: comparable
anti-nisin A antibodies
  reaction in competitive ELISA: no reaction
Solubility determination; alkaline pH
  solubility compared with nisin A: greater than that of nisin A
Solubility determination; pH 6.0
  Solubility: 2600 µg/mL (≈ 781 µM)
Solubility determination; pH 6.5
  Solubility: 1500 µg/mL (≈ 450 µM)
Solubility determination; pH 7.0
  Solubility: 800 µg/mL (≈ 240 µM)
Solubility determination; pH 7.5
  Solubility: 600 µg/mL (≈ 180 µM)

From patent US5594103A, “Lantibiotics similar to nisin a” (Stichting Nederlands Instituut Voor Zuivelonderzoek (NIZO), priority 1991, dated 1997)
